Laboratory results published in US20260337208A1, “HETEROCYCLIC DERIVATIVES AS JANUS KINASE INHIBITORS” (CHIESI FARMACEUTICI S.P.A., priority 2022, published 2026).

Experiments:
JAK3 = biological target: T1, JAK3 (Homo sapiens, UniProt P52333); assay: Biochemical potency on JAK3, TR-FRET (LANCE Ultra kinase assay); conditions: ATP corresponding to Km; cell-free; read-out: JAK3 inhibitory activity (pIC50) (converted)
T1 sequence (P52333 1-1124): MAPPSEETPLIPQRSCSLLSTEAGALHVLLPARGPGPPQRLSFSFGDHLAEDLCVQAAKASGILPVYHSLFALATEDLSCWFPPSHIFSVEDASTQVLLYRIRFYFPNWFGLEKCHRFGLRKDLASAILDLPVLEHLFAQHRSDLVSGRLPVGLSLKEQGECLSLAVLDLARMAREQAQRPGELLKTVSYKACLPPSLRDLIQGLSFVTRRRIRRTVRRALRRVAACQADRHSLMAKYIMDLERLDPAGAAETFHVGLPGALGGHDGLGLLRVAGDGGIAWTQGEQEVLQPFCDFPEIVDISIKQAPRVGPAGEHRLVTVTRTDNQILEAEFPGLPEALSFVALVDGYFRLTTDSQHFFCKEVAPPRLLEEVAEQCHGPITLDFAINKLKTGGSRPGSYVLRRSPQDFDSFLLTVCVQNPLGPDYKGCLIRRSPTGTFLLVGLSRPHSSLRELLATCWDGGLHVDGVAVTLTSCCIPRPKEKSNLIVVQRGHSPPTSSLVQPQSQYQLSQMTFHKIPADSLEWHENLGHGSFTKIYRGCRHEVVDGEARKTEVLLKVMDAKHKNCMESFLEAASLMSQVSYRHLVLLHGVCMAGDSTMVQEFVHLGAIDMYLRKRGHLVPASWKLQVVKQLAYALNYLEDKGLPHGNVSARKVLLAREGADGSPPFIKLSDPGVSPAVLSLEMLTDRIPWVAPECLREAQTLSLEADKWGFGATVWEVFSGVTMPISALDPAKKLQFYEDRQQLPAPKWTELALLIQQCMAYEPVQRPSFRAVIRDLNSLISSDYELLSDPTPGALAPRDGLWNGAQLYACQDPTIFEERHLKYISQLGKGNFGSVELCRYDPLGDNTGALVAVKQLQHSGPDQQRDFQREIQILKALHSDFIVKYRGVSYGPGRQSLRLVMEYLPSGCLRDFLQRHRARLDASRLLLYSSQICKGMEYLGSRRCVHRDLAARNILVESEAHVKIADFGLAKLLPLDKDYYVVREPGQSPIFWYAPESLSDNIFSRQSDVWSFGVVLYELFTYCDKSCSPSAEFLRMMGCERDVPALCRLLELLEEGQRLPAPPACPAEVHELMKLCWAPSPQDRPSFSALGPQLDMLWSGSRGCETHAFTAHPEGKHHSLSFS
Protocol: (§1) The objective of this study was to assess the capability of compounds to inhibit all 4 JAK isoforms activity in a cell-free environment. Assay for JAK 1, JAK 2, JAK 3 and TYK2 were performed by Time-resolved fluorescence resonance energy transfer (TR-FRET) technology. It consists in the interaction of two labelled binding partners detected by the energy transfer from an excited donor to an acceptor dye and measurement of light emission by the acceptor dye. LANCE Ultra kinase assay was used. In presence of JAK 1, JAK 2, JAK 3 and TYK2 kinases and ATP (corresponding to Km), the ULight peptide substrate (LANCE Ulight-JAK-1 (Tyr1023) Peptide, Perkin Elmer, TRF0121) is phosphorylated. It is then captured by Eu-anti-phospho-substrate antibody (LANCE Eu-W1024 Anti-phosphotyrosine (PT66), Perkin Elmer, AD0069), which bring the Eu-chelate donor and ULight acceptor dyes into close proximity. Upon excitation at 320 nm, the Eu-chelate transfers its energy to the ULight dye, resulting in a fluorescent light emission at 665 nm.
(§2) Serial dilutions of compounds in pure DMSO are prepared from 10 mM DMSO stock solutions. Compounds were tested in 384-well plate for 11 consecutive 5-fold dilutions starting from 20 μM highest concentration (20 μM-[…]). 200 nL of compound were transferred from mother plate to test plate by using Mosquito (TTP labtech). Assay was performed in 384-well Perkin Elmer test plate in 20 μL assay volume (kinase reaction) and 40 μL total volume (stopping reagent and antibody detection reagents). In 10 μL of substrate solution (peptide+ATP) 30/50/20/10 nM of peptide and 20/0.7/0.2/12 μM of ATP were added for JAK 1, JAK 2, JAK 3 and TYK2 respectively. 10 μL of enzyme solution was added to kinase reaction at these concentrations: 0.15/0.083/0.025/0.144 ng/μL of JAK 1, JAK 2, JAK 3 and TYK2 respectively. After shaking and 1.5 h of incubation at r.t., 20 μL of Stop (10 μL EDTA) and Detection mixture (10 μL Europium-anti-phospho antibody, final: 0.5 nM) were added. Reading was performed after 1 h of incubation on a En Vision 2104 reader (Perkin Elmer).
(§3) Calculation of IC50 data, curves and QC analysis was performed by using Excel tool and GraphPadPrism software, v9. Briefly, individual concentration-effect curves are generated by plotting the logarithm of the tested concentration of tested compounds (X) vs. corresponding percent inhibition values (Y) using least squares (ordinary) fit. Best fit IC50 values are calculated using Log (inhibitor) vs. normalized response—Variable slope equation, where Y=100/(1+10^((LogIC50−X)*HillSlope)). QC criteria parameters (Z′, S:B, R2, HillSlope) were checked for every IC50 curve. Calculation of IC50 data, curves and QC analysis were made using Excel tools and GraphPadPrism software. QC criteria parameters: Z′≥0.5, Hill Slope range 0.5 to 5, S:B>2.

JAK1 = JAK1 (Homo sapiens, UniProt P23458); assay: Biochemical potency on JAK1, TR-FRET (LANCE Ultra kinase assay); conditions: ATP corresponding to Km; cell-free; read-out: JAK1 inhibitory activity (pIC50) (converted)
Protocol: as §1, §2, §3

TYK2 = TYK2 (Homo sapiens, UniProt P29597); assay: Biochemical potency on Tyk2, TR-FRET (LANCE Ultra kinase assay); conditions: ATP corresponding to Km; cell-free; read-out: TYK2 inhibitory activity (pIC50) (converted)
Protocol: as §1, §2, §3

JAK2 = JAK2 (Homo sapiens, UniProt O60674); assay: Biochemical potency on JAK2, TR-FRET (LANCE Ultra kinase assay); conditions: ATP corresponding to Km; cell-free; read-out: JAK2 inhibitory activity (pIC50) (converted)
Protocol: as §1, §2, §3

[1] = system: pSTAT6 in BEAS-2B human cell line; assay: Inhibition of IL-13 induced pSTAT6 in BEAS; type: cell-based; conditions: for IC50: Homo sapiens, BEAS-2B, 0.5 h, IL-13 trigger, 30 min, parent compound; for Fold difference parent vs predicted acid metabolite: ratio=IC50 predicted acid metabolite/IC50 ester
Protocol: BEAS-2B human cell line was seeded (100.000 cells/well) and incubated for 48 h at 37° C., 5% CO2, 95% humidity. Compounds were added and incubated 30 min followed by IL-13 as trigger. After 30 min incubation, cells were lysed and pSTAT6 determined by Fastscan phospho-stat6 (Tyr641) sandwich ELISA kit (cell signaling). Inhibitors were tested at 11 consecutive 5-fold dilutions starting from 10 μM (10 μM-[…]) in duplicate. Calculation of IC50 data, curves and QC analysis were made using Excel tools and GraphPadPrism software. QC criteria parameters: Z′≥0.35, Hill Slope range 0.5 to 5, S:B>2.

Sequence of TYK2 (P29597 whole entry): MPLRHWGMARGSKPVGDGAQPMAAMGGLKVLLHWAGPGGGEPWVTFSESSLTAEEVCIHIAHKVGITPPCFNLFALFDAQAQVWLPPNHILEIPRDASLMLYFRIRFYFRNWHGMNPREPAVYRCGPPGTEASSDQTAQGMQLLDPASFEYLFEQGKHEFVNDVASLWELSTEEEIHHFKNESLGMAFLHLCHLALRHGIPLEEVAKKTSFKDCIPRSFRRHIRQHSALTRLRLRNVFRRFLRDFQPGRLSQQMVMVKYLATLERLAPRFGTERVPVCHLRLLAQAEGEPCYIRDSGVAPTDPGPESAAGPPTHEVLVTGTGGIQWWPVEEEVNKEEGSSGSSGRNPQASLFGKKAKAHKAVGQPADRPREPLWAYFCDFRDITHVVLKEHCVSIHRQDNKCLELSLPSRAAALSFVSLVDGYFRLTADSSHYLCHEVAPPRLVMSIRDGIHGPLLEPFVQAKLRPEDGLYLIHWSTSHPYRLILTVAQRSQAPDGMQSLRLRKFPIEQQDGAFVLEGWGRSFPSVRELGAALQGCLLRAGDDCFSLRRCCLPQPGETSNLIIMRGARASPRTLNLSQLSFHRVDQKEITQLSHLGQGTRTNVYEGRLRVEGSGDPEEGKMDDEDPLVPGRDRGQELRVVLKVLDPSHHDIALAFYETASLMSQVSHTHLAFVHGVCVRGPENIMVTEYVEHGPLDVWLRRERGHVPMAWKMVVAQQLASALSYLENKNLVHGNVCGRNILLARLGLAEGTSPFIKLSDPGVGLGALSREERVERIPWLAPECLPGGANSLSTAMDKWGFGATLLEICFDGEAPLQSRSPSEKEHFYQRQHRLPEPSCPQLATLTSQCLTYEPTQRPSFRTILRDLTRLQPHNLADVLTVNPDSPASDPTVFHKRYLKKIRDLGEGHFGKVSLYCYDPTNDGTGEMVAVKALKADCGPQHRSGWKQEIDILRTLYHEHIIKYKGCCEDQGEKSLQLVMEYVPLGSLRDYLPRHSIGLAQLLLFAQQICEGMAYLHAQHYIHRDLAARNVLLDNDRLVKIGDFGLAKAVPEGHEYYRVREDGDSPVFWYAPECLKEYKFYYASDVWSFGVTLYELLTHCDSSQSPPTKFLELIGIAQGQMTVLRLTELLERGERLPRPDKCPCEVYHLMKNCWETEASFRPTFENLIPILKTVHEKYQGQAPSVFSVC
Sequence of JAK2 (O60674 whole entry): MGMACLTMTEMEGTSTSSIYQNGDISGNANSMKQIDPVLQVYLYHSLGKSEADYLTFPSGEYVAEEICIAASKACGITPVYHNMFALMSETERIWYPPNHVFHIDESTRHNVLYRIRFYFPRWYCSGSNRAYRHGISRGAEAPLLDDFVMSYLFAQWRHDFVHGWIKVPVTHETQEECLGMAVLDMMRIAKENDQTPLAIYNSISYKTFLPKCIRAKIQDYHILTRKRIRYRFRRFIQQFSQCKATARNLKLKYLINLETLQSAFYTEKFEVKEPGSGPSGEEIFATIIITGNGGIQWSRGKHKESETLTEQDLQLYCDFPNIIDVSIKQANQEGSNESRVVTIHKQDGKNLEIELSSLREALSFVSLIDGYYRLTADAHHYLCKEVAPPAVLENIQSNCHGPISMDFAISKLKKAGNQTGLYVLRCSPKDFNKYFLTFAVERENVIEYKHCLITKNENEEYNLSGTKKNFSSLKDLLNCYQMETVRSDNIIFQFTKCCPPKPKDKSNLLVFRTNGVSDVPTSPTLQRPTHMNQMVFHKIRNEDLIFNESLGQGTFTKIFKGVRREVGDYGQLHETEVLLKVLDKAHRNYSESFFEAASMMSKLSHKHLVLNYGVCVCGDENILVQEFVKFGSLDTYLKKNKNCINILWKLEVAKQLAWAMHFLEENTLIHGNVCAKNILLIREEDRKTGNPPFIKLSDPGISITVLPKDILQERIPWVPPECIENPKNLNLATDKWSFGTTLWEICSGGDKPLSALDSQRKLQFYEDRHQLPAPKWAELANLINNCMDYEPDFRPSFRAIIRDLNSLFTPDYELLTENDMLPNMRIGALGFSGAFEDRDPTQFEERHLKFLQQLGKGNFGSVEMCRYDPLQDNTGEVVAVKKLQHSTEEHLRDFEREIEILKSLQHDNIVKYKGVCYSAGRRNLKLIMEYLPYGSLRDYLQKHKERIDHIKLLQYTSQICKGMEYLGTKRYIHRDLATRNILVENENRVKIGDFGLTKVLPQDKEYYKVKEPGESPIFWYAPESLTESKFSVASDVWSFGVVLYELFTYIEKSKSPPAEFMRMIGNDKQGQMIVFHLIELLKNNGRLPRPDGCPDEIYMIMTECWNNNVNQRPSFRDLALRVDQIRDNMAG
Sequence of JAK1 (P23458 whole entry): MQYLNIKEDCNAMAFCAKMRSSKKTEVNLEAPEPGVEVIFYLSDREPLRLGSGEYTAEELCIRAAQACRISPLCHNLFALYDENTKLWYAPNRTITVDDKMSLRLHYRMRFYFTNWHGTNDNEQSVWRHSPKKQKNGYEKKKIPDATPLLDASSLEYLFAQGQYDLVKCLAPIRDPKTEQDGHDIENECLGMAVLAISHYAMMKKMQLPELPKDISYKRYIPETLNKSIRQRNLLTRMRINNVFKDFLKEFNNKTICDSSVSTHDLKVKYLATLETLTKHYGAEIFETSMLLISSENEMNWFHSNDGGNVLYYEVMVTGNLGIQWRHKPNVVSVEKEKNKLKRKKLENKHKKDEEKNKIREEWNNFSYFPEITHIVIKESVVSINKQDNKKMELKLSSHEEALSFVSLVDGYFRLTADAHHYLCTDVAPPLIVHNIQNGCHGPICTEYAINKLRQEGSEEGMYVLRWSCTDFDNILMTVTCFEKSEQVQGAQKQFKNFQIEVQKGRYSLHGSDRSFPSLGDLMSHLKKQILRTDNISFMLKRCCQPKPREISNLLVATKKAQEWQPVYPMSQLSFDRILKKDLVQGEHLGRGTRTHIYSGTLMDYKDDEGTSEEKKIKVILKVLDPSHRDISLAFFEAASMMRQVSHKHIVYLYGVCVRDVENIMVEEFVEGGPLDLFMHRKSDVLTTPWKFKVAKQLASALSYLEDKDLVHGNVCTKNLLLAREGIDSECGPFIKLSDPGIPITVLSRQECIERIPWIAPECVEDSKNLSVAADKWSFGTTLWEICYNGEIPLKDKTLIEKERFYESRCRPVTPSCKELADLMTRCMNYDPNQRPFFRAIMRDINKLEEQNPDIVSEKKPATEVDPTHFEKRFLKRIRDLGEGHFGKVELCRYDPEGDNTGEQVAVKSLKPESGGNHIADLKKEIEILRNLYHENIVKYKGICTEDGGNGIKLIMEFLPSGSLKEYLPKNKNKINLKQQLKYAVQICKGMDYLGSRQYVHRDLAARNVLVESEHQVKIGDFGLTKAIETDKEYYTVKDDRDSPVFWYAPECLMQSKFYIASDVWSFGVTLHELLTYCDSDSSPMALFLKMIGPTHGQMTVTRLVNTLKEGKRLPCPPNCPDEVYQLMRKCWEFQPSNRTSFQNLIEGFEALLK

IC50 (JAK3) [nM]	IC50 (JAK1) [nM]	IC50 (TYK2) [nM]	IC50 (JAK2) [nM]	SMILES	IC50 [1] [nM]	Fold difference parent vs predicted acid metabolite [1]
≤ 5.01	≤ 5.01	5.01 to 50.1	≤ 5.01	COc1cc2c(cc1-n1nc(C(=O)NCCN3CCC(C(=O)OC4CCCC4)CC3)c3cnc(-c4cnn5cccnc45)cc31)OCCN2 [Example 12, cyclopentyl 1-(2-(1-(6-methoxy-3,4-dihydro-2H-benzo[b][1,4]oxazin-7-yl)-6-(pyrazolo[1,5-a]pyrimidin-3-yl)-1H-pyrazolo[4,3-c]pyridine-3-carboxamido)ethyl)piperidine-4-carboxylate]	≤ 5.01	kkkk (ratio≥200)
≤ 5.01	≤ 5.01	5.01 to 50.1	≤ 5.01	COc1cc2c(cc1-n1nc(C(=O)NCCN3CCC(C(=O)OCC(F)(F)F)CC3)c3cnc(-c4cnn5cccnc45)cc31)OCCN2 [Example 13, 2,2,2-trifluoroethyl 1-(2-(1-(6-methoxy-3,4-dihydro-2H-benzo[b][1,4]oxazin-7-yl)-6-(pyrazolo[1,5-a]pyrimidin-3-yl)-1H-pyrazolo[4,3-c]pyridine-3-carboxamido)ethyl)piperidine-4-carboxylate]	≤ 5.01	kkkk (ratio≥200)
≤ 5.01	≤ 5.01	5.01 to 50.1	≤ 5.01	COc1cc2c(cc1-n1nc(C(=O)NCCN3CCC(C(=O)OCC(C)(C)O)CC3)c3cnc(-c4cnn5cccnc45)cc31)OCCN2 [Example 14, 2-hydroxy-2-methylpropyl 1-(2-(1-(6-methoxy-3,4-dihydro-2H-benzo[b][1,4]oxazin-7-yl)-6-(pyrazolo[1,5-a]pyrimidin-3-yl)-1H-pyrazolo[4,3-c]pyridine-3-carboxamido)ethyl)piperidine-4-carboxylate]	≤ 5.01	kkkk (ratio≥200)
≤ 5.01	≤ 5.01	5.01 to 50.1	≤ 5.01	COc1cc2c(cc1-n1nc(C(=O)NCCN3CCC(C(=O)OCC(C)(C)CO)CC3)c3cnc(-c4cnn5cccnc45)cc31)OCCN2 [Example 15, 3-hydroxy-2,2-dimethylpropyl 1-(2-(1-(6-methoxy-3,4-dihydro-2H-benzo[b][1,4]oxazin-7-yl)-6-(pyrazolo[1,5-a]pyrimidin-3-yl)-1H-pyrazolo[4,3-c]pyridine-3-carboxamido)ethyl)piperidine-4-carboxylate]	≤ 5.01	kkkk (ratio≥200)
≤ 5.01	≤ 5.01	5.01 to 50.1	≤ 5.01	COCCOC(=O)C1CCN(CCNC(=O)c2nn(-c3cc4c(cc3OC)NCCO4)c3cc(-c4cnn5cccnc45)ncc23)CC1 [Example 16, 2-methoxyethyl 1-(2-(1-(6-methoxy-3,4-dihydro-2H-benzo[b][1,4]oxazin-7-yl)-6-(pyrazolo[1,5-a]pyrimidin-3-yl)-1H-pyrazolo[4,3-c]pyridine-3-carboxamido)ethyl)piperidine-4-carboxylate]	≤ 5.01	kkkk (ratio≥200)
≤ 5.01	≤ 5.01	5.01 to 50.1	≤ 5.01	COc1cc2c(cc1-n1nc(C(=O)NCCN3CCC(C(=O)OC4CCOCC4)CC3)c3cnc(-c4cnn5cccnc45)cc31)OCCN2 [Example 17, tetrahydro-2H-pyran-4-yl 1-(2-(1-(6-methoxy-3,4-dihydro-2H-benzo[b][1,4]oxazin-7-yl)-6-(pyrazolo[1,5-a]pyrimidin-3-yl)-1H-pyrazolo[4,3-c]pyridine-3-carboxamido)ethyl)piperidine-4-carboxylate]	≤ 5.01	kkkk (ratio≥200)
≤ 5.01	≤ 5.01	5.01 to 50.1	≤ 5.01	COc1cc2c(cc1-n1nc(C(=O)NCCN3CCC(C(=O)OCC4CCOCC4)CC3)c3cnc(-c4cnn5cccnc45)cc31)OCCN2 [Example 18, (tetrahydro-2H-pyran-4-yl)methyl 1-(2-(1-(6-methoxy-3,4-dihydro-2H-benzo[b][1,4]oxazin-7-yl)-6-(pyrazolo[1,5-a]pyrimidin-3-yl)-1H-pyrazolo[4,3-c]pyridine-3-carboxamido)ethyl)piperidine-4-carboxylate]	≤ 5.01	kkkk (ratio≥200)
≤ 5.01	≤ 5.01	5.01 to 50.1	≤ 5.01	COc1cc2c(cc1-n1nc(C(=O)NCCN3CCC(C(=O)OCC4CN(C)CCO4)CC3)c3cnc(-c4cnn5cccnc45)cc31)OCCN2 (stereo not drawn) [Example 19, (4-methylmorpholin-2-yl)methyl 1-(2-(1-(6-methoxy-3,4-dihydro-2H-benzo[b][1,4]oxazin-7-yl)-6-(pyrazolo[1,5-a]pyrimidin-3-yl)-1H-pyrazolo[4,3-c]pyridine-3-carboxamido)ethyl)piperidine-4-carboxylate]	≤ 5.01	kkkk (ratio≥200)
